In ChEMBL document CHEMBL1201862, “PubChem BioAssay data set” (2004):
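48-hour exposure; five concentrations; linearly interpolated endpoints. Abbreviation: GI50, concentration required for 50% inhibition of growth.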 Active and inactive are the calls of the source. No stated cut-off is given here; in the data, active = GI50 up to about 1.1 µM and inactive = higher.

Experiments:
Assay in all cases: NCI anticancer screen, dose series, 48 h
[1] = tested on: A498
[2] = tested on: A549
[3] = tested on: CAKI-1
[4] = tested on: HL-60
[5] = tested on: HOP-92
[6] = tested on: HT-29
[7] = tested on: M14
[8] = tested on: Malme-3M
[9] = tested on: NCI-H226
[10] = tested on: OVCAR-3
[11] = tested on: RXF 393
[12] = tested on: SF-295
[13] = tested on: SK-MEL-28
[14] = tested on: SK-MEL-2
[15] = tested on: SW-620
[16] = tested on: TK-10
[17] = tested on: SR

Measured: GI50

O=C(CC1(O)C(=O)Nc2ccccc21)c1ccccc1O (centres undefined)
inactive: [1] > 100 µM | [2] > 100 µM | [3] > 100 µM | [4] > 100 µM | [5] > 100 µM | [6] > 100 µM | [7] > 100 µM | [8] > 100 µM | [9] > 100 µM | [10] > 100 µM | [11] > 100 µM | [12] > 100 µM | [13] > 100 µM | [14] > 100 µM | [15] > 100 µM | [16] > 100 µM

O=C(c1cc(=O)c2ccc(O)cc2o1)c1ccc(Cl)cc1Cl
inactive: [1] 57.3 µM | [2] > 30.8 µM | [3] > 69.7 µM | [4] 1.26 µM | [5] 32.8 µM | [6] 36.2 µM | [7] 5.12 µM | [8] 34.4 µM | [9] 26.7 µM | [10] 15.5 µM | [11] 29 µM | [12] 20.6 µM | [13] > 59.3 µM | [14] 26 µM | [15] 12.2 µM | [16] 38.5 µM

Cc1nc2c(n1C(C)(C)C)C(=O)c1ccccc1C2=O
inactive: [2] 92 µM | [4] 46.2 µM | [5] 9.31 µM | [6] 44.1 µM | [7] > 100 µM | [8] 44.6 µM | [9] 67.9 µM | [10] 38.6 µM | [11] > 100 µM | [12] 87.3 µM | [13] > 100 µM | [14] 80.4 µM | [17] 45 µM | [15] > 100 µM | [16] 82 µM

CC1=CC(C)(c2c[nH]c3ccccc23)CC(C)(C)c2c1[nH]c1ccccc21 (centres undefined)
inactive: [1] 17.7 µM | [2] 14 µM | [4] 6.46 µM | [6] 12.9 µM | [7] 17.9 µM | [8] 16.6 µM | [9] 18.6 µM | [10] 14 µM | [11] 12.4 µM | [12] 14.5 µM | [13] 14.5 µM | [17] 12.5 µM | [15] 16.9 µM | [16] 43.1 µM

NC(=O)C12CC3CC(CC(Br)(C3)C1)C2
inactive: [1] > 100 µM | [2] > 100 µM | [3] > 100 µM | [4] > 100 µM | [5] > 100 µM | [6] > 100 µM | [7] > 100 µM | [10] > 100 µM | [12] > 100 µM | [13] > 100 µM | [17] > 100 µM | [15] > 100 µM | [16] > 100 µM

COc1ccc(/C=C(\NC(=O)c2ccccc2)c2nc3ccccc3[nH]2)cc1
inactive: [1] > 100 µM | [2] 41.6 µM | [3] 36.9 µM | [5] 26.9 µM | [6] 36.4 µM | [7] 33.4 µM | [8] 36.3 µM | [9] 72.9 µM | [10] 34.5 µM | [13] 14.6 µM | [14] 21.1 µM | [17] 28.1 µM | [15] 46.6 µM

Cc1cccc(C(C)(C)C)c1NC(=O)C(=O)Cc1nc2ccccc2s1
inactive: [1] > 100 µM | [2] > 100 µM | [3] > 100 µM | [4] > 100 µM | [5] > 100 µM | [6] > 100 µM | [7] > 100 µM | [8] > 100 µM | [9] > 100 µM | [10] > 100 µM | [12] > 100 µM | [13] > 100 µM | [14] > 100 µM | [15] > 100 µM | [16] > 100 µM

O=C(OCc1ccccc1)N1N=NC2C1C1CC(OCc3ccccc3)(OCc3ccccc3)C2O1 (centres undefined)
inactive: [1] > 100 µM | [2] > 100 µM | [3] > 100 µM | [4] > 100 µM | [5] > 100 µM | [6] > 100 µM | [7] > 100 µM | [8] > 100 µM | [9] > 100 µM | [10] > 100 µM | [11] > 100 µM | [12] > 100 µM | [13] > 100 µM | [14] > 100 µM | [15] > 100 µM

O=C1c2ccccc2C(=O)c2c1ccc1c3ccccc3n(Cc3ccccc3)c21
inactive: [2] > 100 µM | [3] > 100 µM | [4] > 100 µM | [5] 26.2 µM | [6] > 100 µM | [7] > 100 µM | [8] > 100 µM | [9] 54.6 µM | [10] > 100 µM | [12] > 100 µM | [14] > 100 µM | [17] > 100 µM | [15] > 100 µM

Cc1noc2cccc(O)c12
inactive: [1] > 100 µM | [2] > 100 µM | [3] > 100 µM | [4] > 100 µM | [5] > 100 µM | [6] > 100 µM | [7] > 100 µM | [8] > 100 µM | [9] > 100 µM | [10] > 100 µM | [11] > 100 µM | [12] > 100 µM | [13] > 100 µM | [14] > 100 µM | [15] > 100 µM | [16] > 100 µM

Cc1cc(N(CCC#N)CCC#N)ccc1/C=N\c1ccc(C(=O)NN2C(=O)/C(=C/c3ccc(N(CCC#N)CCC#N)cc3)N=C2c2cc([N+](=O)[O-])ccc2Cl)cc1
inactive: [1] > 100 µM | [2] > 100 µM | [3] > 100 µM | [4] 61.1 µM | [5] > 100 µM | [6] 80.5 µM | [7] 62.7 µM | [8] > 100 µM | [9] > 100 µM | [10] > 100 µM | [11] > 100 µM | [13] > 100 µM | [14] > 100 µM | [15] > 100 µM | [16] > 100 µM

CC1(Sc2ccccc2)CN(Cc2ccccc2)C1=O (centres undefined)
inactive: [1] > 100 µM | [2] > 100 µM | [4] 60.4 µM | [5] 20.5 µM | [6] > 100 µM | [7] > 100 µM | [9] > 100 µM | [10] > 100 µM | [11] > 100 µM | [12] > 100 µM | [13] > 100 µM | [14] > 100 µM | [15] > 100 µM | [16] > 100 µM

C[C@]12CC/C(=N\OC(=O)Nc3ccccc3)C=C1CC[C@@H]1C2CC[C@@]2(C)C1CC[C@@H]2OC(=O)Nc1ccccc1 (some centres undefined)
inactive: [1] 92.9 µM | [2] > 100 µM | [3] 3.27 µM | [4] 8.79 µM | [5] > 100 µM | [6] > 100 µM | [7] 35.9 µM | [10] > 100 µM | [12] 47.9 µM | [14] > 100 µM | [15] > 100 µM | [16] > 100 µM

CC(C)(C)CC(C)(C)c1cc2c(O)c(c1)Cc1cc(C(C)(C)CC(C)(C)C)cc(c1O)Cc1cc(C(C)(C)CC(C)(C)C)cc(c1O)Cc1cc(C(C)(C)CC(C)(C)C)cc(c1O)Cc1cc(C(C)(C)CC(C)(C)C)cc(c1O)Cc1cc(C(C)(C)CC(C)(C)C)cc(c1O)Cc1cc(C(C)(C)CC(C)(C)C)cc(c1O)Cc1cc(C(C)(C)CC(C)(C)C)cc(c1O)C2
inactive: [2] > 100 µM | [4] > 100 µM | [5] > 100 µM | [6] > 100 µM | [7] > 100 µM | [8] > 100 µM | [10] > 100 µM | [11] > 100 µM | [12] > 100 µM | [13] > 100 µM | [14] > 100 µM | [15] > 100 µM | [16] > 100 µM

O/N=C1/C(=C/c2ccccc2)CCCC1C(NO)c1ccccc1 (centres undefined)
inactive: [1] > 100 µM | [2] 40.1 µM | [4] 2.29 µM | [5] 33.3 µM | [6] > 100 µM | [7] 84.9 µM | [8] 44.2 µM | [10] > 100 µM | [11] 34.8 µM | [12] 78.3 µM | [13] > 100 µM | [14] > 100 µM | [15] > 100 µM | [16] > 100 µM

COc1ccc(C=O)c(N(C)C(=O)C(C)(C)C)c1
inactive: [1] > 100 µM | [2] > 100 µM | [4] > 100 µM | [5] > 100 µM | [6] > 100 µM | [7] > 100 µM | [8] > 100 µM | [9] > 100 µM | [10] > 100 µM | [11] > 100 µM | [12] > 100 µM | [13] > 100 µM | [14] > 100 µM | [15] > 100 µM | [16] > 100 µM

COc1ccc(C)cc1-c1cc(Sc2ccccc2)c(-c2cc(C)ccc2OC)o1
inactive: [1] > 31.6 µM | [2] > 31.6 µM | [3] > 31.6 µM | [4] > 31.6 µM | [5] > 31.6 µM | [6] > 31.6 µM | [7] > 31.6 µM | [8] > 31.6 µM | [9] > 31.6 µM | [10] > 31.6 µM | [12] > 100 µM | [13] > 31.6 µM | [14] > 10 µM | [15] > 29.6 µM | [16] > 31.6 µM

COc1cc(Nc2nc3cc(C)ccc3nc2-c2ccccc2)cc(OC)c1OC
inactive: [1] 45.6 µM | [2] 29.8 µM | [3] 27.5 µM | [4] 22.5 µM | [5] 23.2 µM | [6] 14.8 µM | [7] 29.3 µM | [8] 29.6 µM | [10] 18.5 µM | [12] 20.9 µM | [13] 16.6 µM | [14] 23 µM | [17] 16.2 µM | [15] 58.1 µM | [16] 42 µM
